Numbers after ± are expanded uncertainties.
Assay: xn = mol fraction of the nth substance listed
Settings: 101.3 kPa, Liquid; for viscosity: Concentric cylinders viscometry; for mass density: Vibrating tube method

CCCCn1cc[n+](C)c1C.O=S(=O)([N-]S(=O)(=O)C(F)(F)F)C(F)(F)F + CCOC(=O)OCC
Settings | mass density [kg/m3] | viscosity [mPa·s]
293.15 K, x1 = 0.0996 | 1078.2 ± 2.4 | 2.172 ± 0.028
293.15 K, x1 = 0.199 | 1156.1 ± 2.4 | 4.104 ± 0.053
293.15 K, x1 = 0.299 | 1216.4 ± 2.4 | 7.648 ± 0.096
293.15 K, x1 = 0.3982 | 1263.9 ± 2.4 | 13.1 ± 0.16
293.15 K, x1 = 0.4985 | 1302.6 ± 2.4 | 21.35 ± 0.27
293.15 K, x1 = 0.5979 | 1334.6 ± 2.4 | 33.14 ± 0.42
293.15 K, x1 = 0.698 | 1361.8 ± 2.5 | 49.42 ± 0.62
293.15 K, x1 = 0.8 | 1385.4 ± 2.5 | 71.45 ± 0.93
293.15 K, x1 = 0.9012 | 1405.7 ± 2.5 | 99.34 ± 1.5
293.15 K, x1 = 1 | 1423.1 ± 2.5 | 133.6 ± 2.3
298.15 K, x1 = 0.0996 | 1072.9 ± 2.4 | 1.989 ± 0.025
298.15 K, x1 = 0.199 | 1151 ± 2.4 | 3.665 ± 0.045
298.15 K, x1 = 0.299 | 1211.4 ± 2.4 | 6.684 ± 0.081
298.15 K, x1 = 0.3982 | 1259 ± 3 | 11.19 ± 0.14
298.15 K, x1 = 0.4985 | 1297.7 ± 2.4 | 17.82 ± 0.22
298.15 K, x1 = 0.5979 | 1329.8 ± 2.4 | 27.06 ± 0.33
298.15 K, x1 = 0.698 | 1357.1 ± 2.5 | 39.58 ± 0.49
298.15 K, x1 = 0.8 | 1380.8 ± 2.5 | 56.2 ± 0.69
298.15 K, x1 = 0.9012 | 1401.1 ± 2.5 | 76.75 ± 1
298.15 K, x1 = 1 | 1418.5 ± 2.5 | 101.82 ± 1.6
303.15 K, x1 = 0.0996 | 1067.5 ± 2.4 | 1.829 ± 0.023
303.15 K, x1 = 0.199 | 1145.8 ± 2.4 | 3.295 ± 0.04
303.15 K, x1 = 0.299 | 1206.4 ± 2.4 | 5.892 ± 0.072
303.15 K, x1 = 0.3982 | 1254.1 ± 2.4 | 9.654 ± 0.12
303.15 K, x1 = 0.4985 | 1292.9 ± 2.4 | 15.06 ± 0.18
303.15 K, x1 = 0.5979 | 1325.1 ± 2.4 | 22.44 ± 0.27
303.15 K, x1 = 0.698 | 1352.4 ± 2.5 | 32.24 ± 0.4
303.15 K, x1 = 0.8 | 1376.1 ± 2.5 | 44.95 ± 0.56
303.15 K, x1 = 0.9012 | 1396.5 ± 2.5 | 60.57 ± 0.75
303.15 K, x1 = 1 | 1413.9 ± 2.5 | 79.23 ± 1.1
308.15 K, x1 = 0.0996 | 1062.1 ± 2.4 | 1.689 ± 0.021
308.15 K, x1 = 0.199 | 1140.6 ± 2.4 | 2.979 ± 0.037
308.15 K, x1 = 0.299 | 1201.3 ± 2.4 | 5.234 ± 0.063
308.15 K, x1 = 0.3982 | 1249.1 ± 2.4 | 8.41 ± 0.1
308.15 K, x1 = 0.4985 | 1288.1 ± 2.4 | 12.88 ± 0.16
308.15 K, x1 = 0.5979 | 1320.3 ± 2.4 | 18.86 ± 0.23
308.15 K, x1 = 0.698 | 1347.6 ± 2.5 | 26.64 ± 0.33
308.15 K, x1 = 0.8 | 1371.4 ± 2.5 | 36.59 ± 0.45
308.15 K, x1 = 0.9012 | 1391.9 ± 2.5 | 48.62 ± 0.6
308.15 K, x1 = 1 | 1409.3 ± 2.5 | 62.74 ± 0.78
313.15 K, x1 = 0.0996 | 1056.8 ± 2.4 | 1.565 ± 0.02
313.15 K, x1 = 0.199 | 1135.4 ± 2.4 | 2.708 ± 0.033
313.15 K, x1 = 0.299 | 1196.3 ± 2.4 | 4.682 ± 0.057
313.15 K, x1 = 0.3982 | 1244.2 ± 2.4 | 7.39 ± 0.089
313.15 K, x1 = 0.4985 | 1283.2 ± 2.4 | 11.12 ± 0.13
313.15 K, x1 = 0.5979 | 1315.5 ± 2.4 | 16.03 ± 0.19
313.15 K, x1 = 0.698 | 1342.9 ± 2.5 | 22.31 ± 0.27
313.15 K, x1 = 0.8 | 1366.8 ± 2.5 | 30.21 ± 0.37
313.15 K, x1 = 0.9012 | 1387.2 ± 2.5 | 39.65 ± 0.49
313.15 K, x1 = 1 | 1404.8 ± 2.5 | 50.56 ± 0.6
318.15 K, x1 = 0.0996 | 1051.4 ± 2.4 | 1.456 ± 0.019
318.15 K, x1 = 0.199 | 1130.3 ± 2.4 | 2.472 ± 0.03
318.15 K, x1 = 0.299 | 1191.3 ± 2.4 | 4.215 ± 0.051
318.15 K, x1 = 0.3982 | 1239.3 ± 2.4 | 6.543 ± 0.079
318.15 K, x1 = 0.4985 | 1278.4 ± 2.4 | 9.697 ± 0.12
318.15 K, x1 = 0.5979 | 1310.8 ± 2.4 | 13.78 ± 0.17
318.15 K, x1 = 0.698 | 1338.2 ± 2.5 | 18.9 ± 0.23
318.15 K, x1 = 0.8 | 1362.1 ± 2.5 | 25.27 ± 0.31
318.15 K, x1 = 0.9012 | 1382.6 ± 2.5 | 32.78 ± 0.4
318.15 K, x1 = 1 | 1400.2 ± 2.5 | 41.38 ± 0.5
323.15 K, x1 = 0.0996 | 1046 ± 2.4 | 1.359 ± 0.017
323.15 K, x1 = 0.199 | 1125.1 ± 2.4 | 2.268 ± 0.028
323.15 K, x1 = 0.299 | 1186.3 ± 2.4 | 3.816 ± 0.046
323.15 K, x1 = 0.3982 | 1234.4 ± 2.4 | 5.835 ± 0.07
323.15 K, x1 = 0.4985 | 1273.6 ± 2.4 | 8.523 ± 0.1
323.15 K, x1 = 0.5979 | 1306 ± 3 | 11.95 ± 0.14
323.15 K, x1 = 0.698 | 1333.6 ± 2.4 | 16.18 ± 0.19
323.15 K, x1 = 0.8 | 1357.5 ± 2.5 | 21.39 ± 0.26
323.15 K, x1 = 0.9012 | 1378 ± 3 | 27.46 ± 0.33
323.15 K, x1 = 1 | 1395.6 ± 2.5 | 34.32 ± 0.42
328.15 K, x1 = 0.0996 | 1040.5 ± 2.5 | 1.271 ± 0.016
328.15 K, x1 = 0.199 | 1119.8 ± 2.4 | 2.09 ± 0.026
328.15 K, x1 = 0.299 | 1181.2 ± 2.4 | 3.473 ± 0.042
328.15 K, x1 = 0.3982 | 1229.5 ± 2.4 | 5.245 ± 0.063
328.15 K, x1 = 0.4985 | 1268.7 ± 2.4 | 7.565 ± 0.09
328.15 K, x1 = 0.5979 | 1301.3 ± 2.4 | 10.47 ± 0.13
328.15 K, x1 = 0.698 | 1328.8 ± 2.5 | 14.02 ± 0.17
328.15 K, x1 = 0.8 | 1352.8 ± 2.5 | 18.35 ± 0.22
328.15 K, x1 = 0.9012 | 1373.4 ± 2.5 | 23.33 ± 0.28
328.15 K, x1 = 1 | 1391 ± 2.5 | 28.91 ± 0.35

Source: the NIST ThermoML archive (doi:10.1016/j.jct.2018.10.015)
